{"source": "paper PMC10983791", "about": "(ACS chemical biology, 2023)", "type_in_all_cases": "biochemical", "key": {"[1]": {"target": "T1, HNMT (Homo sapiens, UniProt P50135)", "T1 sequence (P50135 whole entry)": "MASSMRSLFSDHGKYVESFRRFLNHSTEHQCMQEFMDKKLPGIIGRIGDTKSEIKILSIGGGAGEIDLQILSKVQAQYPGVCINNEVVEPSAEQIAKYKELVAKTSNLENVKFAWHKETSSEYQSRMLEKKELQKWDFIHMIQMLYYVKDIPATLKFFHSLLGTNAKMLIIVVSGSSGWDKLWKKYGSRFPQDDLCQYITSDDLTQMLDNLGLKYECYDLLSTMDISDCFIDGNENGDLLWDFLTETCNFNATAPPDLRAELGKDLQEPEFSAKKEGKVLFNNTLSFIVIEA", "assay": "MTase-Glo HNMT inhibition assay", "conditions": "for HNMT activity and specificity in SAR analysis: SAR expansion of diazepine chemotype; for activity in HTS and follow-up: MTase-Glo, top dose 40 μM; for potency loss: relative to the best analogs with pyridine nitrogen"}, "[2]": {"target": "T2, GNMT (Homo sapiens, UniProt Q14749)", "T2 sequence (Q14749 1-295)": "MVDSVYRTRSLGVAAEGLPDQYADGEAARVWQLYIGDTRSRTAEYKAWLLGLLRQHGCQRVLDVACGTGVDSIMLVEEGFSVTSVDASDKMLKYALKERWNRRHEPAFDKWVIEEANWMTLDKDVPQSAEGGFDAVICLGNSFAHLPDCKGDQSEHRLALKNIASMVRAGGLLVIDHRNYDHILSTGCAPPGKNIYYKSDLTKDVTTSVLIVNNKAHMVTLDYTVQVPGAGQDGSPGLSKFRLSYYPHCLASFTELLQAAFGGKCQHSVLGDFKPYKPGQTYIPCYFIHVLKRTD", "assay": "KM determination by method of initial rates, GNMT", "conditions": "read-out: KM, substrate, SAM 100 μM, MTase-Glo readout"}, "[3]": {"tested_on": "MTase-Glo coupled reporter assay", "assay": "MTase-Glo counter-assay", "conditions": "1 μM SAH in place of enzyme; for result in counter-assay replicates: two counter-assay replicates"}, "[4]": {"target": "T3, NNMT (Homo sapiens, UniProt P40261)", "T3 sequence (P40261 1-264)": "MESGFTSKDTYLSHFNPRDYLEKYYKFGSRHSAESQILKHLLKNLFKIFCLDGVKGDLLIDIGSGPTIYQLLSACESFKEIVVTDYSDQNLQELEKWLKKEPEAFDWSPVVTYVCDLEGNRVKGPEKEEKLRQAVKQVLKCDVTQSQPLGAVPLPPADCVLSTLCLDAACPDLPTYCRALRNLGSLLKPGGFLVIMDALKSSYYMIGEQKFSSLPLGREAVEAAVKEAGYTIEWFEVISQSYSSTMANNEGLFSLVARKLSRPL", "assay": "MTase-Glo NNMT inhibition assay", "conditions": "for activity in HTS and follow-up: MTase-Glo, top dose 40 μM"}, "[5]": {"target": "T4, COMT (Homo sapiens, UniProt P21964)", "T4 sequence (P21964 1-271)": "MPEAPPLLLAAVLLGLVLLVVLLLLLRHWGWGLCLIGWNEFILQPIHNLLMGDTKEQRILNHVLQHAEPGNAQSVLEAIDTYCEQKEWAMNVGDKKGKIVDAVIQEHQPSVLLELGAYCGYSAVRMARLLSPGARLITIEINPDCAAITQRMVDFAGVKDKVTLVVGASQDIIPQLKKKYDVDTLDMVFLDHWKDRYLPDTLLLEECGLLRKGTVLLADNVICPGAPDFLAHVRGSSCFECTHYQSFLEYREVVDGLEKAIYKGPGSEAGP", "assay": "MTase-Glo COMT inhibition assay", "conditions": "for activity in HTS and follow-up: MTase-Glo, top dose 40 μM"}, "[6]": {"target": "T2, GNMT", "assay": "LC-MS orthogonal assay, GNMT"}, "[7]": {"target": "GAMT (Homo sapiens, UniProt Q14353)", "assay": "MTase-Glo GAMT inhibition assay", "conditions": "for activity in HTS and follow-up: MTase-Glo, top dose 40 μM"}, "[8]": {"target": "T3, NNMT", "assay": "LC-MS orthogonal assay, NNMT"}, "[9]": {"target": "T5, PNMT (Homo sapiens, UniProt P11086)", "T5 sequence (P11086 1-282)": "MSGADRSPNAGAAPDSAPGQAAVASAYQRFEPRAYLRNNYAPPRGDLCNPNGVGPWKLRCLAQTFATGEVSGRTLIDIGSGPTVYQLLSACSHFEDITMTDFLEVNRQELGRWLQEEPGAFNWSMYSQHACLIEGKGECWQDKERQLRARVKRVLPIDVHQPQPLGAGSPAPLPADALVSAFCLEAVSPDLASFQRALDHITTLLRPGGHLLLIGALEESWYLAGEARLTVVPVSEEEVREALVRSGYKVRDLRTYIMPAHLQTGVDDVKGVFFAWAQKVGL", "assay": "MTase-Glo PNMT inhibition assay", "conditions": "for activity in HTS and follow-up: MTase-Glo, top dose 40 μM"}, "[10]": {"target": "T4, COMT", "assay": "LC-MS orthogonal assay, COMT"}, "[11]": {"target": "T1, HNMT", "assay": "LC-MS orthogonal assay, HNMT", "conditions": "for response in MS assay: LC-MS dose response"}, "[12]": {"target": "T2, GNMT", "assay": "MTase-Glo GNMT inhibition assay", "conditions": "for activity in HTS and follow-up: MTase-Glo, top dose 40 μM"}, "[13]": {"target": "T5, PNMT", "assay": "LC-MS orthogonal assay, PNMT"}, "[14]": {"conditions": "11-point dose response, up to 50 μM"}}, "note": "Entries after “also recorded” stand apart in the source; their conditions may differ.", "data": [{"smiles": "Fc1ccccc1CN1CCNc2cc(Nc3cccnc3)ncc2C1", "note": "[NCGC00411168]", "values": [{"measurement": "HNMT activity and specificity in SAR analysis", "setting": "[1]; 11-point dose response", "result": "showed best activity"}]}, {"smiles": "NCC(=O)O", "note": "[Glycine]", "values": [{"measurement": "Km", "setting": "[2]", "result": "> 500", "unit": "µM"}]}, {"smiles": "Cc1ccc(C(=O)Nc2cnn(-c3ncncc3N3CCC(C)CC3)c2)s1", "note": "[NCGC00519779]", "values": [{"measurement": "result in counter-assay replicates", "setting": "[3]", "result": "conflicting results"}, {"measurement": "activity in HTS and follow-up", "setting": "[4]", "result": "showed activity against all of the SMMTases tested"}, {"measurement": "activity in HTS and follow-up", "setting": "[5]", "result": "showed activity against all of the SMMTases tested"}, {"measurement": "response in MS assay", "setting": "[6]", "result": "did not inhibit any SMMTase"}, {"measurement": "activity in HTS and follow-up", "setting": "[7]", "result": "showed activity against all of the SMMTases tested"}, {"measurement": "response in MS assay", "setting": "[8]", "result": "did not inhibit any SMMTase"}, {"measurement": "activity in HTS and follow-up", "setting": "[9]", "result": "showed activity against all of the SMMTases tested"}, {"measurement": "response in MS assay", "setting": "[10]", "result": "did not inhibit any SMMTase"}, {"measurement": "response in MS assay", "setting": "[11]", "result": "did not inhibit any SMMTase"}, {"measurement": "activity in HTS and follow-up", "setting": "[12]", "result": "showed activity against all of the SMMTases tested"}, {"measurement": "response in MS assay", "setting": "[13]", "result": "did not inhibit any SMMTase"}, {"measurement": "activity in HTS and follow-up", "setting": "[1]", "result": "showed activity against all of the SMMTases tested"}]}, {"smiles": "c1cncc(Nc2cc3c(cn2)CN(Cc2ccsc2)CCN3)c1", "note": "[NCGC00411044]", "values": [{"measurement": "response in MS assay", "setting": "[6]", "result": "No response"}, {"measurement": "response in MS assay", "setting": "[8]", "result": "No response"}, {"measurement": "response in MS assay", "setting": "[10]", "result": "No response"}, {"measurement": "IC50", "setting": "[11]; read-out: IC50, MS assay, LC-MS readout of SAH, n=3", "result": 0.67, "unit": "µM"}, {"measurement": "response in MS assay", "setting": "[13]", "result": "No response"}, {"measurement": "HNMT activity and specificity in SAR analysis", "setting": "[1]; 11-point dose response", "result": "most active HNMT-selective compounds; also recorded: showed best activity"}, {"measurement": "IC50", "setting": "[1]; read-out: IC50, MTase Glo assay", "result": 2.45, "unit": "µM"}]}, {"smiles": "c1ccc(Nc2cc3c(cn2)CN(Cc2cc[nH]n2)CCN3)cc1", "note": "[NCGC00411115]", "values": [{"measurement": "potency loss", "setting": "[1]", "result": "at least 10 fold"}]}, {"smiles": "Cc1cc(-c2cc3c(cn2)CN(Cc2cccs2)CCN3)ccn1", "note": "[NCGC00411196]", "values": [{"measurement": "potency loss", "setting": "[1]", "result": "at least 10 fold"}]}, {"smiles": "COc1ccc(C(=O)Nc2cnn(-c3ncncc3N3CCC(C)CC3)c2)cc1", "note": "[NCGC00519772]", "values": [{"measurement": "result in counter-assay replicates", "setting": "[3]", "result": "conflicting results"}, {"measurement": "activity in HTS and follow-up", "setting": "[4]", "result": "showed activity against all of the SMMTases tested"}, {"measurement": "activity in HTS and follow-up", "setting": "[5]", "result": "showed activity against all of the SMMTases tested"}, {"measurement": "response in MS assay", "setting": "[6]", "result": "did not inhibit any SMMTase"}, {"measurement": "activity in HTS and follow-up", "setting": "[7]", "result": "showed activity against all of the SMMTases tested"}, {"measurement": "response in MS assay", "setting": "[8]", "result": "did not inhibit any SMMTase"}, {"measurement": "activity in HTS and follow-up", "setting": "[9]", "result": "showed activity against all of the SMMTases tested"}, {"measurement": "response in MS assay", "setting": "[10]", "result": "did not inhibit any SMMTase"}, {"measurement": "response in MS assay", "setting": "[11]", "result": "did not inhibit any SMMTase"}, {"measurement": "activity in HTS and follow-up", "setting": "[12]", "result": "showed activity against all of the SMMTases tested"}, {"measurement": "response in MS assay", "setting": "[13]", "result": "did not inhibit any SMMTase"}, {"measurement": "activity in HTS and follow-up", "setting": "[1]", "result": "showed activity against all of the SMMTases tested"}]}, {"smiles": "c1cncc(Nc2cc3c(cn2)CN(CC2CCOC2)CCN3)c1", "note": "(centres unmarked) [NCGC00411147]", "values": [{"measurement": "HNMT activity and specificity in SAR analysis", "setting": "[1]; 11-point dose response", "result": "potency loss"}]}, {"smiles": "Oc1ccccc1CN1CCNc2cc(Nc3ccccc3)ncc2C1", "note": "[NCGC00411199]", "values": [{"measurement": "potency loss", "setting": "[1]", "result": "at least 10 fold"}]}, {"smiles": "c1cncc(Nc2cc3c(cn2)CN(Cc2c[nH]c4ccccc24)CCN3)c1", "note": "[NCGC00411220]", "values": [{"measurement": "HNMT activity and specificity in SAR analysis", "setting": "[1]; 11-point dose response", "result": "reduced specificity"}]}, {"smiles": "Nc1ncnc2c1ncn2[C@@H]1O[C@H](C[C@@H](N)CC[C@H](N)C(=O)O)[C@@H](O)[C@H]1O", "note": "[sinefungin, reference compound]", "values": [{"measurement": "inhibition of counter-assay by positive control", "setting": "[3]", "result": "not inhibited"}, {"measurement": "inhibition by positive control", "setting": "[4]; [14]", "result": "inhibitable"}, {"measurement": "inhibition by positive control", "setting": "[5]; [14]", "result": "inhibitable"}, {"measurement": "inhibition by positive control", "setting": "[7]; [14]", "result": "inhibitable"}, {"measurement": "inhibition by positive control", "setting": "[9]; [14]", "result": "inhibitable"}, {"measurement": "inhibition by positive control", "setting": "[12]; [14]", "result": "All MTases except GNMT were inhibitable"}, {"measurement": "inhibition by positive control", "setting": "[1]; [14]", "result": "inhibitable"}]}, {"smiles": "c1ccc(Nc2cc3c(cn2)CN(Cc2c[nH]c4ccccc24)CCN3)cc1", "note": "[NCGC00411050]", "values": [{"measurement": "potency loss", "setting": "[1]", "result": "at least 10 fold"}]}, {"smiles": "Cn1cc(CN2CCNc3cc(Nc4cccnc4)ncc3C2)cn1", "note": "[NCGC00411154]", "values": [{"measurement": "HNMT activity and specificity in SAR analysis", "setting": "[1]; 11-point dose response", "result": "reduce activity"}]}]}
